We go through 37 compounds from ChEMBL document CHEMBL1641542, “Structure-activity relationships of 2,4-diphenyl-1H-imidazole analogs as CB2 receptor agonists for the treatment of chronic pain” (Bioorg Med Chem Lett, 2011).

SMILES strings stand for the structures.

Data set [1] has as its target T1, Cannabinoid receptor 1 (Homo sapiens, UniProt P21554). The experiment in a line: Agonist activity at human cloned CB1 receptor expressed in CHO cells assessed as inhibition of forskolin-induced cAMP accumulation. It is filed as functional, cell-based.
The target in data set [2] is T2, Cannabinoid receptor 2 (Homo sapiens, UniProt P34972). The data set can be described thus: Agonist activity at human cloned CB2 receptor expressed in CHO cells assessed as inhibition of forskolin-induced cAMP accumulation. The class given is functional, cell-based. (Changes in cAMP serve as a functional read-out for many G protein-coupled receptors.)
T2 sequence (P34972 whole entry): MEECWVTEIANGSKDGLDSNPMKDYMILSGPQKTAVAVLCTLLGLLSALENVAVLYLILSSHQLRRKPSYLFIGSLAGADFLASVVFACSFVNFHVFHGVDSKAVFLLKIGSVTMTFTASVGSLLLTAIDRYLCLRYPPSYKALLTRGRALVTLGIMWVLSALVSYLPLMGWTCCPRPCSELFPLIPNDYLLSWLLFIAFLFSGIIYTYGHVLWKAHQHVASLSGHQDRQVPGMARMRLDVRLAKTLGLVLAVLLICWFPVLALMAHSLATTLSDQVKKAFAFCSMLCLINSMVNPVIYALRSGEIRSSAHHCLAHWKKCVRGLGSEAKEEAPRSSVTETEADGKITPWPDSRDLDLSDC
In data set [3] the target is T2, Cannabinoid receptor 2. The experiment in a line: Agonist activity at human cloned CB2 receptor expressed in CHO cells assessed as inhibition of forskolin-induced cAMP accumulation relative to control. It is filed as functional, cell-based.
The nature of data set [4]: AUC (0 to 6 hrs) in rat at 10 mg/kg, po. The arrangement: time < 6 hr, dose 10 mg/kg, route oral. It is filed as ADME, organism-based. Particulars: plasma.
Data set [5] has as its target T1, Cannabinoid receptor 1. The experiment in a line: Displacement of [3H]-CP55940 from human cloned CB1 receptor expressed in CHO cells. It is filed as cell-based.
The target in data set [6] is T2, Cannabinoid receptor 2. The data set can be described thus: Displacement of [3H]-CP55940 from human cloned CB2 receptor expressed in CHO cells. It is filed as cell-based. In general terms: In a radioligand displacement assay an active substance lowers the binding of a labelled ligand.
In data set [7] the target is T1, Cannabinoid receptor 1. The experiment in a line: Agonist activity at human cloned CB1 receptor expressed in CHO cells assessed as inhibition of forskolin-induced cAMP accumulation relative to control. It is filed as functional, cell-based.

T1 sequence (P21554 whole entry): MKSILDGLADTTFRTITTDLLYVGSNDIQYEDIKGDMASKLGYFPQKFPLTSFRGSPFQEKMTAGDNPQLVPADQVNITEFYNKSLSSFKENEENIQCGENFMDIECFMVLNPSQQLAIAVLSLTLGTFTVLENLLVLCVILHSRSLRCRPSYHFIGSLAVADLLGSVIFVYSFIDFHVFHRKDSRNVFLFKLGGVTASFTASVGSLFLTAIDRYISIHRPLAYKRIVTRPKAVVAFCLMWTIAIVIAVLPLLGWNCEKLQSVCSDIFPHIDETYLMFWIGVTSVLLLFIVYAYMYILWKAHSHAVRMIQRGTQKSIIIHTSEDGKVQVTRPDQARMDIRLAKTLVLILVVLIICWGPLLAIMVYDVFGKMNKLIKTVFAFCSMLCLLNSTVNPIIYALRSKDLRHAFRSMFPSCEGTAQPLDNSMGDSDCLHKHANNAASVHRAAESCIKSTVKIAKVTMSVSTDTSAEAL

One may read the EC50 as the concentration that produces a half-maximal response. Broadly, the Emax is the size of the effect at its maximum, as opposed to the concentration needed. For orientation: AUC(0-t) means exposure summed from dosing to a finite time, without extrapolation to infinity. Regarding `FC1CCN(Cc2cccc(-c3nc(-c4cccc(C(F)(F)F)c4)c[nH]3)c2)CC1`, the EC50 was determined as 2290 nM at Cannabinoid receptor 1 [1] and 9 nM on Cannabinoid receptor 2 [2]. In addition, the Emax at Cannabinoid receptor 2 [3] was found to be 107%. The AUC(0-t) at 6 h in data set [4] came to 0.524 µM·h.

Turning to `CC1CN(Cc2ccccc2-c2nc(-c3cccc(C(F)(F)F)c3)c[nH]2)CCO1` (centres undefined), the EC50 on Cannabinoid receptor 1 [1] is greater than 10000 nM; at Cannabinoid receptor 2 [2] it was 510 nM. Further, the Emax at Cannabinoid receptor 2 [3] was 102%.

With `FC1(F)CCCN(Cc2cccc(-c3nc(-c4cccc(C(F)(F)F)c4)c[nH]3)c2)C1`, on Cannabinoid receptor 2 [2], the EC50 came to 25 nM. The Emax at Cannabinoid receptor 2 [3] is 98%. In addition, the AUC(0-t) at 6 h in data set [4] was 0.851 µM·h.

As for `COc1ccc(-c2c[nH]c(-c3cccc(CN4CCC(F)(F)CC4)c3)n2)c(F)c1`, the figures for the EC50 at Cannabinoid receptor 1 [1] and at Cannabinoid receptor 2 [2] were 39 nM and 3 nM, respectively. Further, the Emax on Cannabinoid receptor 2 [3] came out at 107%.

In the case of `COc1ccc(F)c(-c2c[nH]c(-c3cccc(CN4CCC(F)CC4)c3)n2)c1`, the EC50 on Cannabinoid receptor 1 [1] was determined as 87 nM; at Cannabinoid receptor 2 [2], 5 nM. Besides, the Emax at Cannabinoid receptor 2 [3] amounted to 106%.

For the compound `CC1CN(Cc2cccc(-c3nc(-c4cccc(C(F)(F)F)c4)c[nH]3)c2)CCO1` (centres undefined), the results for the EC50 at Cannabinoid receptor 1 [1] and on Cannabinoid receptor 2 [2] were greater than 10000 nM and 25 nM, respectively. The Emax on Cannabinoid receptor 2 [3] was found to be 97%. The same compound came in with an AUC(0-t) at 6 h in data set [4] of 1.99 µM·h.

A word on the Ki: it is a dissociation constant, usually derived from enzyme kinetics or from competition with a known ligand. Low values mean tighter binding, high ones weaker binding. In the case of `FC(F)(F)c1cccc(-c2c[nH]c(-c3cccc(CN4CCOCC4)c3)n2)c1`, the Ki at Cannabinoid receptor 1 [5] was 1000 nM; on Cannabinoid receptor 2 [6], 42 nM. Moreover, the EC50 at Cannabinoid receptor 1 [1] was greater than 1000 nM; at Cannabinoid receptor 2 [2], 8 nM. Besides, the Emax worked out at 80% at Cannabinoid receptor 2 [3] and 67% on Cannabinoid receptor 1 [7]. The compound further came in with an AUC(0-t) at 6 h in data set [4] of 0.866 µM·h.

As to `O=S(=O)(c1ccccc1)n1cc(-c2cccc(C(F)(F)F)c2)nc1-c1cccc(CN2CCOCC2)c1`, the EC50 at Cannabinoid receptor 2 [2] was greater than 1000 nM.

For `COc1ccc(F)c(-c2c[nH]c(-c3cccc(CN4CCC(F)(F)CC4)c3)n2)c1`, the EC50 on Cannabinoid receptor 1 [1] worked out at 25 nM; on Cannabinoid receptor 2 [2], 5 nM. The Emax at Cannabinoid receptor 2 [3] came out at 107%.

On to `COc1ccc(F)c(-c2c[nH]c(-c3cccc(CN4CCCCC4)c3)n2)c1`, for which the EC50 was 320 nM on Cannabinoid receptor 1 [1] and 4 nM at Cannabinoid receptor 2 [2]. On Cannabinoid receptor 2 [3], the Emax turned out to be 108%.

Turning to `Brc1cccc(-c2c[nH]c(-c3cccc(CN4CCOCC4)c3)n2)c1`, the EC50 on Cannabinoid receptor 1 [1] worked out at 665 nM; on Cannabinoid receptor 2 [2], 5 nM. In addition, the Emax at Cannabinoid receptor 2 [3] is 112%. Moreover, the AUC(0-t) at 6 h in data set [4] was found to be 0.158 µM·h.

`CCOc1ccc(F)c(-c2c[nH]c(-c3cccc(CN4CCCCC4)c3)n2)c1`: the EC50 turned out to be 8500 nM on Cannabinoid receptor 1 [1] and 87 nM at Cannabinoid receptor 2 [2]. Further, on Cannabinoid receptor 2 [3], the Emax was determined as 102%.

Regarding `CC1CCN(Cc2cccc(-c3nc(-c4cccc(Cl)c4Cl)c[nH]3)c2)CC1`, the EC50 was greater than 10000 nM at Cannabinoid receptor 1 [1] and 25 nM on Cannabinoid receptor 2 [2]. Moreover, the Emax at Cannabinoid receptor 2 [3] is 107%.

Turning to `FC1CCN(Cc2cccc(-c3nc(-c4cccc(Cl)c4Cl)c[nH]3)c2)CC1`, the EC50 at Cannabinoid receptor 1 [1] was determined as 1290 nM; on Cannabinoid receptor 2 [2], 5 nM. Further, the Emax at Cannabinoid receptor 2 [3] turned out to be 119%.

For the compound `FC(F)(F)c1cccc(-c2c[nH]c(-c3cccc(CN4CCCCC4)c3)n2)c1`, the EC50 on Cannabinoid receptor 1 [1] is greater than 10000 nM; at Cannabinoid receptor 2 [2], 14 nM. Further, the Emax at Cannabinoid receptor 2 [3] was found to be 104%. In data set [4], this compound registered an area under the curve AUC(0-t) at 6 h of 0.537 µM·h.

With `CC1CN(Cc2cccc(-c3nc(-c4cccc(Cl)c4)c[nH]3)c2)CCO1` (centres undefined), the EC50 worked out at 3250 nM on Cannabinoid receptor 1 [1] and 14 nM at Cannabinoid receptor 2 [2]. In addition, the Emax on Cannabinoid receptor 2 [3] came to 102%.

As to `Clc1ccc(-c2c[nH]c(-c3cccc(CN4CCCCC4)c3)n2)c(Cl)c1`, the figures for the EC50 at Cannabinoid receptor 1 [1] and on Cannabinoid receptor 2 [2] were 1800 nM and 24 nM, respectively. The Emax at Cannabinoid receptor 2 [3] came to 104%.

Turning to `FC(F)(F)c1cccc(-c2cn(CC3CC3)c(-c3cccc(CN4CCOCC4)c3)n2)c1`, the EC50 at Cannabinoid receptor 1 [1] was greater than 1000 nM; on Cannabinoid receptor 2 [2] it was 412 nM. Besides, the Emax on Cannabinoid receptor 2 [3] was 68%.

Consider `CC1CCN(Cc2cccc(-c3nc(-c4cccc(C(F)(F)F)c4)c[nH]3)c2)CC1`, for which the results for the EC50 on Cannabinoid receptor 1 [1] and on Cannabinoid receptor 2 [2] were greater than 10000 nM and 21 nM, respectively. Moreover, the Emax on Cannabinoid receptor 2 [3] came out at 97%. Moreover, the AUC(0-t) at 6 h in data set [4] came out at 0.881 µM·h.

As for `FC(F)(F)c1cccc(-c2cn(Cc3ccccc3)c(-c3cccc(CN4CCOCC4)c3)n2)c1`, the concentration for a half-maximal effect (EC50) at Cannabinoid receptor 1 [1] and at Cannabinoid receptor 2 [2] was greater than 1000 nM throughout.

As to `FC1CCN(Cc2cccc(-c3nc(-c4cccc(Cl)c4)c[nH]3)c2)CC1`, the EC50 at Cannabinoid receptor 1 [1] is 130 nM; at Cannabinoid receptor 2 [2], 8 nM. At Cannabinoid receptor 2 [3], the Emax was 107%.

As for `COc1ccc(F)c(-c2c[nH]c(-c3cccc(CN4CCOCC4)c3)n2)c1`, the EC50 on Cannabinoid receptor 1 [1] turned out to be 140 nM; on Cannabinoid receptor 2 [2], 4 nM. Moreover, the Emax at Cannabinoid receptor 2 [3] was 109%.

Regarding `FC1CCN(Cc2ccccc2-c2nc(-c3cccc(C(F)(F)F)c3)c[nH]2)CC1`, the figures for the EC50 at Cannabinoid receptor 1 [1] and on Cannabinoid receptor 2 [2] were greater than 10000 nM and 130 nM, respectively. Also, the Emax on Cannabinoid receptor 2 [3] was found to be 108%.

As to `C[C@H]1COCCN1Cc1cccc(-c2nc(-c3cccc(C(F)(F)F)c3)c[nH]2)c1`, the EC50 on Cannabinoid receptor 2 [2] turned out to be 169 nM. Further, the Emax on Cannabinoid receptor 2 [3] was found to be 78%.

`CC1CCCN(Cc2cccc(-c3nc(-c4cccc(C(F)(F)F)c4)c[nH]3)c2)C1` (centres undefined): the EC50 at Cannabinoid receptor 2 [2] worked out at 70 nM. At Cannabinoid receptor 2 [3], the Emax came out at 87%. Besides, the AUC(0-t) at 6 h in data set [4] worked out at 1.41 µM·h.

On to `CC(C)n1cc(-c2cccc(C(F)(F)F)c2)nc1-c1cccc(CN2CCOCC2)c1`, for which the EC50 at Cannabinoid receptor 1 [1] is greater than 1000 nM; at Cannabinoid receptor 2 [2], 218 nM.

Take `FC1CCCN(Cc2cccc(-c3nc(-c4cccc(C(F)(F)F)c4)c[nH]3)c2)C1` (centres undefined): the EC50 on Cannabinoid receptor 2 [2] came out at 16 nM. The maximal response (Emax) on Cannabinoid receptor 2 [3] is 98%. Moreover, the AUC(0-t) at 6 h in data set [4] amounted to 0.682 µM·h.

With `Clc1cccc(-c2c[nH]c(-c3cccc(CN4CCCCC4)c3)n2)c1`, the EC50 at Cannabinoid receptor 1 [1] worked out at 1050 nM; at Cannabinoid receptor 2 [2] it was 10 nM. In addition, the Emax at Cannabinoid receptor 2 [3] stood at 114%.

As to `OCC1CCCN(Cc2cccc(-c3nc(-c4cccc(C(F)(F)F)c4)c[nH]3)c2)C1` (centres undefined), the values for the EC50 at Cannabinoid receptor 1 [1] and at Cannabinoid receptor 2 [2] were greater than 1000 nM and 61 nM, respectively. In addition, the Emax at Cannabinoid receptor 2 [3] worked out at 91%.

For `FC(F)(F)c1cccc(-c2cn(-c3ccccc3)c(-c3cccc(CN4CCOCC4)c3)n2)c1`, the EC50 at Cannabinoid receptor 2 [2] is greater than 1000 nM.

Regarding `Clc1cccc(-c2c[nH]c(-c3cccc(CN4CCCCC4)c3)n2)c1Cl`, the EC50 was found to be 12600 nM at Cannabinoid receptor 1 [1] and 8 nM on Cannabinoid receptor 2 [2]. In addition, the Emax on Cannabinoid receptor 2 [3] was determined as 115%.

With `O=C(c1ccccc1)n1cc(-c2cccc(C(F)(F)F)c2)nc1-c1cccc(CN2CCOCC2)c1`, the EC50 at Cannabinoid receptor 2 [2] is 11 nM. Besides, on Cannabinoid receptor 2 [3], the Emax came to 101%.

For the compound `FC1CCN(Cc2cccc(-c3nc(-c4ccc(Cl)cc4Cl)c[nH]3)c2)CC1`, the EC50 at Cannabinoid receptor 1 [1] amounted to 2450 nM; on Cannabinoid receptor 2 [2], 10 nM. For the same compound, the Emax on Cannabinoid receptor 2 [3] amounted to 107%.

On to `CC(=O)n1cc(-c2cccc(C(F)(F)F)c2)nc1-c1cccc(CN2CCOCC2)c1`, for which the results for the EC50 on Cannabinoid receptor 1 [1] and on Cannabinoid receptor 2 [2] were greater than 1000 nM and 9 nM, respectively. Moreover, at Cannabinoid receptor 2 [3], the Emax was 102%.

For the compound `FC(F)(F)c1cccc(-c2c[nH]c(-c3cccc(CN4CCSCC4)c3)n2)c1`, the EC50 at Cannabinoid receptor 1 [1] is greater than 1000 nM; on Cannabinoid receptor 2 [2], 6 nM. Moreover, the maximal response (Emax) on Cannabinoid receptor 2 [3] worked out at 100%. In data set [4], the AUC(0-t) at 6 h was 0.042 µM·h.

Regarding `O[C@H]1CCCN(Cc2cccc(-c3nc(-c4cccc(C(F)(F)F)c4)c[nH]3)c2)C1`, the EC50 was greater than 10000 nM on Cannabinoid receptor 1 [1] and 113 nM at Cannabinoid receptor 2 [2]. Further, the Emax on Cannabinoid receptor 2 [3] amounted to 92%.

Take `FC1(F)CCN(Cc2cccc(-c3nc(-c4cccc(C(F)(F)F)c4)c[nH]3)c2)CC1`: the EC50 on Cannabinoid receptor 1 [1] was 2550 nM; at Cannabinoid receptor 2 [2], 5 nM. Moreover, the Emax at Cannabinoid receptor 2 [3] was determined as 100%. Moreover, the AUC(0-t) at 6 h in data set [4] is 1.11 µM·h.
